Measured values taken from patent US7410949B2, “Neuropeptide-2 receptor (Y-2R) agonists and uses thereof” (Hoffmann-La Roche Inc., priority 2005, dated 2008).
pEC50: −log10 of the molar value. *1 amine or outer side, *2 acyl side, *3 side chain or, on linkers, in order; H or OH if unused. Where a SMILES comes first, the peptide text is derived from it. Bridges are numbered along the chain shown (N, C = ends). [ ]: non-standard residue; d: D form. X1 = O=C(COc1ccc2[nH]cc(CCN[*:1])c2c1)[*:2]; Nle = CCCC[C@H](N)C(=O)O

How the values were obtained:
hypothalamic slices = hypothalamic slices in vitro; cited from earlier work
Y1R = biological target: T1, Y1R (Homo sapiens, UniProt P25929); test: FLIPR assay, Y1R; assay type: cell-based
T1 sequence (P25929 1-384): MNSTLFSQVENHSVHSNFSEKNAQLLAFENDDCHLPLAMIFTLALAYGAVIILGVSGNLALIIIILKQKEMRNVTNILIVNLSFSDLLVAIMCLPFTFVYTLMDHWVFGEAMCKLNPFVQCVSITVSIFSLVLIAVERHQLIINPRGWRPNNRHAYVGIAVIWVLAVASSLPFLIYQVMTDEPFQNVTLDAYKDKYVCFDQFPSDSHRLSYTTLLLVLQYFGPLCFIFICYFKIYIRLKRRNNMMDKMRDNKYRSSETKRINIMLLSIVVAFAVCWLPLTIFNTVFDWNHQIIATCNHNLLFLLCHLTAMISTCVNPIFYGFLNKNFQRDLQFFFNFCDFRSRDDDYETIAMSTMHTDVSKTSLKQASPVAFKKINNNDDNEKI
Protocol: (§1) Loading Buffer (Calcium-3 Assay Kit, Molecular Devices) was prepared by dissolving the contents of one vial (Express Kit) into 1000 ml Hank's Balanced Salt Solution containing 20 mM HEPES and 5 mM probenecid. Aliquots of 25 μL of diluted dye was dispensed into the cell plates and the plates are then incubated for 1 hour at 37° C.
(§2) During the incubation, test compounds were prepared at 3.5× the desired concentration in HBSS (20 mM HEPES)/0.05% BSA/1% DMSO and transferred to a 384 well plate for use on FLIPR.
(§3) After incubation, both the cell and compound plates were brought to the FLIPR and 20 μL of the diluted compounds were transferred to the cell plates by the FLIPR. During the assay, fluorescence readings were taken simultaneously from all 384 wells of the cell plate every 1.5 seconds. Five readings were taken to establish a stable baseline, and then 20 μL of sample was rapidly (30 μL/sec) and simultaneously added to each well of the cell plate. The fluorescence was continuously monitored before, during and after sample addition for a total elapsed time of 100 seconds. Responses (increase in peak fluorescence) in each well following addition was determined. The initial fluorescence reading from each well, prior to ligand stimulation, was used as a zero baseline value for the data from that well. The responses are expressed as % of maximal response of the positive control.

Y4R = Y4R (Homo sapiens, UniProt P50391); test: FLIPR assay, Y4R; assay type: cell-based
Protocol: as §1, §2, §3

[1] = tested on: C57BL/6J male mice or DIO (diet-induced obese) male mice; test: In Vivo Reduction of Food Intake Assay; design: species or system mouse
Protocol: In this Example, compounds of Examples 5, 44, 73 and 74 were administered to four sets of mice in four separate experiments to measure effect on food intake. C57BL/6J male mice or DIO (diet-induced obese) male mice were used in the experiments, with eight mice per experimental group. The mice were maintained on a regular light cycle (6 AM—ON; 6 PM—OFF). The mice were fasted for 24 hours prior to testing with ad lib access to water. During the test, mice were housed one per cage.
The compounds of Examples 5 and 44 were administered intraperitoneally; and the compounds of Examples 73 and 74 were administered subcutaneously. In each Figure, cumulative and time interval food consumptions were measured in individual mice. Mean food consumption and percent change from vehicle were calculated for each time interval. Data was analyzed by using two-tailed Student t-test.

[2] = administered intraperitoneally, mice fasted 24 hours, 1, 2, 4, 6 and 24 hours after dosing
[3] = administered subcutaneously, mice fasted 24 hours, 1, 2, 4, 6, 24 hours and longer intervals

Y4R, sequence (P50391 whole entry): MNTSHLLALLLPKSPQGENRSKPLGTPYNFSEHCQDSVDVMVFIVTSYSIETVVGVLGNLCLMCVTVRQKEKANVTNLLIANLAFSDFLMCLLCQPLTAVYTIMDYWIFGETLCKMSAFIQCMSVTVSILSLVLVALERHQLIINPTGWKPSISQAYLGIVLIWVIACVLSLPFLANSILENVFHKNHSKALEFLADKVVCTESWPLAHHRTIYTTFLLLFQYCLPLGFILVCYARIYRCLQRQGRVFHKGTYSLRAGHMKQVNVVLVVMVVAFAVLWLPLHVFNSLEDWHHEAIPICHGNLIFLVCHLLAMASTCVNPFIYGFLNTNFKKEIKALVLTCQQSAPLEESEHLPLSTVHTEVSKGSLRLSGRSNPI

Compound | reduction of food intake [1, 2] | reduction of food intake [1, 3] | further results
N=C(N)NCCC[C@H](NC(=O)CC1(CC(=O)N2CCN(C3c4ccccc4NC(=O)c4ccccc43)CC2)CCCC1)C(=O)NCCn1c(=O)n(-c2ccccc2)n(-c2ccccc2)c1=O (stereo partly shown) [BIIE0246] | – | – | NPY release (hypothalamic slices): increases NPY release
CCCC[C@H](NC(=O)[C@@H](NC(C)=O)[C@@H](C)CC)C(=O)NCCc1c[nH]c2ccc(OCC(=O)N[C@@H](CCCNC(=N)N)C(=O)N[C@@H](Cc3c[nH]cn3)C(=O)N[C@@H](Cc3ccc(O)cc3)C(=O)N[C@H]3CCCCNC(=O)C[C@@H](C(=O)N[C@@H](CCCNC(=N)N)C(=O)N[C@@H](CCC(N)=O)C(=O)N[C@@H](CCCNC(=N)N)C(=O)N[C@@H](Cc4ccc(O)cc4)C(N)=O)NC(=O)[C@H](C(C)C)NC(=O)[C@H](CC(C)C)NC(=O)[C@H](CC(N)=O)NC3=O)cc12 [Example 53] (Ac-I[Nle][X1]RHYKNLVDRQRY-NH2; lactam 7-11) | – | – | pEC50 (Y1R): < 5.30; pEC50 (Y4R): < 5.30
Ac-Ile-Nle-Pqa-Arg-His-Tyr-Leu-Asn-Leu-Val-Thr-Arg-Gln-Arg-Tyr-NH2 [Example 44] | reduction of food intake was demonstrated | – | –
H-Ile-Lys-Pqa-Arg-His-Tyr-Leu-Asn-Leu-Val-Thr-Arg-Gln-Arg-Tyr-NH2 [Example 5] | reduction of food intake was demonstrated | – | –
PEG (10,000)-Ile-Nle-Pqa-Arg-His-Tyr-Leu-Asn-Leu-Val-Thr-Arg-Gln-Arg-Tyr-NH2 [Example 73] | – | reduction of food intake was demonstrated | –
PEG (30,000)-Ile-Nle-Pqa-Arg-His-Tyr-Leu-Asn-Leu-Val-Thr-Arg-Gln-Arg-Tyr-NH2 [Example 74] | – | reduction of food intake was demonstrated | –
